Test results reported in PMC6325200, “Effects of Microplate Type and Broth Additives on Microdilution MIC Susceptibility Assays” (Antimicrobial Agents and Chemotherapy, 2018).
In brackets after ≈: the same amount, converted by molar mass.

Key:
E. faecalis ATCC 29212 = assay: microbe, parasite or virus in culture; settings: Enterococcus faecalis, n = 2
How it was run: (§1)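 Every plate included two controls, one row of bacteria alone and one of medium only. Test agents and standard antibiotics underwent twofold dilution series in 96-well format, and cultures were diluted 40-fold into MH broth in the presence or absence of Tween before 2–3 h at 37°C.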

[1] = test system: MSSA S. aureus ATCC 25923; assay: microbe, parasite or virus in culture; settings: Staphylococcus aureus, n = 2
How it was run: as §1

S. pneumoniae ATCC 33440 = assay: microbe, parasite or virus in culture; settings: Streptococcus pneumoniae, n = 2
How it was run: as §1

[2] = test system: S. pneumoniae ATCC 700677 (MDR); assay: microbe, parasite or virus in culture; settings: Streptococcus pneumoniae, ATCC700677
How it was run: as §1

P. aeruginosa ATCC 10145 = assay: microbe, parasite or virus in culture; settings: Pseudomonas aeruginosa, n = 2
How it was run: as §1

[3] = test system: S. aureus GISA NRS 2; ATCC 700698; assay: microbe, parasite or virus in culture; settings: Staphylococcus aureus, n = 2
How it was run: as §1

E. coli ATCC 25922 = assay: microbe, parasite or virus in culture; settings: Escherichia coli, n = 2
How it was run: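 Broth microdilution with 2-fold serial compound dilutions in MH broth, using cultures diluted 40-fold and grown at 37°C for 2 to 3 h, with or without Tween. Variants included 2% beractant added to mid-log cultures, or 50% human serum in MHB.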

E. coli = settings: literature value; cited from earlier work
MRSA = settings: literature value; cited from earlier work
Excerpt: TABLE 1 Literature MIC values for tested antibiotics | column: MIC (µg/ml) (reference[s]) / MRSA

`O=C(O)c1cn(C2CC2)c2cc(N3CCNCC3)c(F)cc2c1=O` [Ciprofloxacin, ciprofloxacin] showed an MIC (E. faecalis ATCC 29212; ATCC29212, Corning NBS, MHB +T80) of 2 µg/mL (≈ 6.04 µM), an MIC (E. faecalis ATCC 29212; ATCC29212, Corning NBS, MHB -T80) of 2 µg/mL (≈ 6.04 µM) and an MIC (E. faecalis ATCC 29212; ATCC29212, Corning TC, MHB +T80) of 0.5 to 1 µg/mL (≈ 1.51 to 3.02 µM). It also gave an MIC (E. faecalis ATCC 29212; ATCC29212, Corning TC, MHB -T80) of 0.25 µg/mL (≈ 0.754 µM), an MIC ([1]; Corning NBS, MHB +T80) of 0.5 to 1 µg/mL (≈ 1.51 to 3.02 µM) and an MIC ([1]; Corning PS, MHB +T80) of 0.5 µg/mL (≈ 1.51 µM). The MIC ([1]; Corning PS, MHB -T80) was 0.25 to 0.5 µg/mL (≈ 0.754 to 1.51 µM), the MIC ([1]; Corning TC, MHB +T80) was 0.5 to 1 µg/mL (≈ 1.51 to 3.02 µM) and the MIC (S. pneumoniae ATCC 33440; ATCC33440, Corning NBS, MHB +T80) was 0.25 to 1 µg/mL (≈ 0.754 to 3.02 µM). The MIC (S. pneumoniae ATCC 33440; ATCC33440, Corning PS, MHB -T80) was 0.25 to 0.5 µg/mL (≈ 0.754 to 1.51 µM), the MIC (S. pneumoniae ATCC 33440; ATCC33440, Corning TC, MHB +T80) was 0.25 to 0.5 µg/mL (≈ 0.754 to 1.51 µM) and the MIC (S. pneumoniae ATCC 33440; ATCC33440, Corning TC, MHB -T80) was 0.25 to 0.5 µg/mL (≈ 0.754 to 1.51 µM). For the same compound, the MIC [2] was 0.5 to 1 µg/mL (≈ 1.51 to 3.02 µM), the MIC (P. aeruginosa ATCC 10145; ATCC10145, Corning PS, MHB +T80) was 0.25 to 0.5 µg/mL (≈ 0.754 to 1.51 µM) and the MIC (P. aeruginosa ATCC 10145; ATCC10145, Corning TC, MHB +T80) was 0.25 to 0.5 µg/mL (≈ 0.754 to 1.51 µM). It also gave an MIC (P. aeruginosa ATCC 10145; ATCC10145, Corning TC, MHB -T80) of no more than 0.03 µg/mL, an MIC ([3]; Corning NBS, MHB +T80) of 64 µg/mL (≈ 193 µM) and an MIC ([3]; Corning NBS, MHB -T80) of 64 µg/mL (≈ 193 µM). It also gave an MIC ([3]; Corning PS, MHB +T80) of 64 µg/mL (≈ 193 µM), an MIC ([3]; Corning TC, MHB +T80) of 64 µg/mL (≈ 193 µM) and an MIC ([3]; Corning TC, MHB -T80) of 32 to 64 µg/mL (≈ 96.6 to 193 µM). The MIC (E. coli ATCC 25922; ATCC25922, 24 h, Corning NBS, MH + 2% LHB, 2% LS) was 0.03 to 0.06 µg/mL, the MIC (E. coli ATCC 25922; ATCC25922, 24 h, Corning NBS, MH + 2% LHB, 50% HS) was no more than 0.03 µg/mL and the MIC (E. coli ATCC 25922; ATCC25922, 24 h, Corning NBS, MH + 2% LHB, no additive) was no more than 0.03 µg/mL. For the same compound, the MIC (E. coli ATCC 25922; ATCC25922, 24 h, Corning NBS, MH + T80, 2% LS) was no more than 0.03 µg/mL, the MIC (E. coli ATCC 25922; ATCC25922, 24 h, Corning NBS, MH + T80, 50% HS) was no more than 0.03 µg/mL and the MIC (E. coli ATCC 25922; ATCC25922, 24 h, Corning PS, MH + 2% LHB, 2% LS) was no more than 0.03 µg/mL. For the same compound, the MIC (E. coli ATCC 25922; ATCC25922, 24 h, Corning PS, MH + 2% LHB, 50% HS) was no more than 0.03 µg/mL, the MIC (E. coli ATCC 25922; ATCC25922, 24 h, Corning PS, MH + 2% LHB, no additive) was no more than 0.03 µg/mL and the MIC (E. coli ATCC 25922; ATCC25922, 24 h, Corning PS, MH + T80, 2% LS) was no more than 0.03 µg/mL. For the same compound, the MIC (E. coli ATCC 25922; ATCC25922, 24 h, Corning PS, MH + T80, 50% HS) was no more than 0.03 µg/mL, the MIC (E. coli ATCC 25922; ATCC25922, 24 h, Corning TC, MH + 2% LHB, 2% LS) was no more than 0.03 µg/mL and the MIC (E. coli ATCC 25922; ATCC25922, 24 h, Corning TC, MH + 2% LHB, 50% HS) was no more than 0.03 µg/mL. It also gave an MIC (E. coli ATCC 25922; ATCC25922, 24 h, Corning TC, MH + 2% LHB, no additive) of no more than 0.03 µg/mL, an MIC (E. coli ATCC 25922; ATCC25922, 24 h, Corning TC, MH + T80, 2% LS) of no more than 0.03 µg/mL and an MIC (E. coli ATCC 25922; ATCC25922, 24 h, Corning TC, MH + T80, 50% HS) of no more than 0.03 µg/mL. It also gave an MIC (E. coli ATCC 25922; ATCC25922, 24 h, Trek PS, MH + 2% LHB, 2% LS) of no more than 0.03 µg/mL, an MIC (E. coli ATCC 25922; ATCC25922, 24 h, Trek PS, MH + 2% LHB, 50% HS) of no more than 0.03 µg/mL and an MIC (E. coli ATCC 25922; ATCC25922, 24 h, Trek PS, MH + 2% LHB, no additive) of 0.03 to 0.06 µg/mL. It also gave an MIC (E. coli ATCC 25922; ATCC25922, 24 h, Trek PS, MH + T80, 2% LS) of no more than 0.03 µg/mL, an MIC (E. coli ATCC 25922; ATCC25922, 24 h, Trek PS, MH + T80, 50% HS) of no more than 0.03 µg/mL and an MIC (E. coli ATCC 25922; ATCC25922, Corning NBS plate, MHB +0.002% T80, no further additive) of no more than 0.03 µg/mL. It also gave an MIC (E. coli ATCC 25922; ATCC25922, Corning NBS plate, MHB −T80, no additive) of no more than 0.03 µg/mL, an MIC (E. coli ATCC 25922; ATCC25922, Corning NBS, MH, 2% LS) of no more than 0.03 µg/mL and an MIC (E. coli ATCC 25922; ATCC25922, Corning NBS, MH, 50% HS) of no more than 0.03 µg/mL. It also gave an MIC (E. coli ATCC 25922; ATCC25922, Corning PS plate, MHB +0.002% T80, no further additive) of no more than 0.03 µg/mL, an MIC (E. coli ATCC 25922; ATCC25922, Corning PS plate, MHB −T80, no additive) of no more than 0.03 µg/mL and an MIC (E. coli ATCC 25922; ATCC25922, Corning PS, MH, 2% LS) of no more than 0.03 µg/mL. The MIC (E. coli ATCC 25922; ATCC25922, Corning PS, MH, 50% HS) was no more than 0.03 µg/mL, the MIC (E. coli ATCC 25922; ATCC25922, Corning TC plate, MHB +0.002% T80, no further additive) was no more than 0.03 µg/mL and the MIC (E. coli ATCC 25922; ATCC25922, Corning TC plate, MHB −T80, no additive) was no more than 0.03 µg/mL. For the same compound, the MIC (E. coli ATCC 25922; ATCC25922, Corning TC, MH, 2% LS) was no more than 0.03 µg/mL, the MIC (E. coli ATCC 25922; ATCC25922, Corning TC, MH, 50% HS) was no more than 0.03 µg/mL and the MIC (E. coli ATCC 25922; ATCC25922, Nunc PS plate, MHB −T80) was no more than 0.03 µg/mL. For the same compound, the MIC (E. coli ATCC 25922; ATCC25922, Nunc U TC plate, MHB +0.002% T80) was no more than 0.03 µg/mL, the MIC (E. coli ATCC 25922; ATCC25922, Nunc U TC plate, MHB −T80) was no more than 0.03 µg/mL and the MIC (E. coli ATCC 25922; ATCC25922, Nunc flat TC plate, MHB +0.002% T80) was no more than 0.03 µg/mL. It also gave an MIC (E. coli ATCC 25922; ATCC25922, Nunc flat TC plate, MHB −T80) of no more than 0.03 µg/mL, an MIC (E. coli ATCC 25922; ATCC25922, Trek PS plate, MHB +0.002% T80, no further additive) of no more than 0.03 µg/mL and an MIC (E. coli ATCC 25922; ATCC25922, Trek PS plate, MHB −T80, no additive) of no more than 0.03 µg/mL. For the same compound, the MIC (E. coli ATCC 25922; ATCC25922, Trek PS, MH, 2% LS) was no more than 0.03 µg/mL, the MIC (E. coli ATCC 25922; ATCC25922, Trek PS, MH, 50% HS) was no more than 0.03 µg/mL and the “MIC (literature)” value (E. coli) was 0.03–0.06 ([64], [65]) µg/ml. The “MIC (literature)” value (MRSA) was 0.5 ([63]) µg/ml.
